In patent publication US20050192261A1, “Methods and reagents for the treatment of immunoinflammatory disorders” (priority 2003, published 2005):
Where a name gives a salt, the structure may show the parent alone. Read-outs that look alike come from different tables or passages of the source.

Test system: TNFα secretion in white blood cells from human buffy coat stimulated with phorbol 12-myristate 13-acetate and ionomycin
Assay: TNFα secretion assay
Details: for inhibition at 0.5 µM: read-out: % inhibition of TNFα secretion, Ibudilast 0.5 μM; for inhibition at 1 µM: read-out: % inhibition of TNFα secretion, Ibudilast 1 μM; for inhibition at 2 µM: read-out: % inhibition of TNFα secretion, Ibudilast 2 μM; for inhibition at 4 µM: read-out: % inhibition of TNFα secretion, Ibudilast 4 μM; for inhibition at 8 µM: read-out: % inhibition of TNFα secretion, Ibudilast 8 μM; for percent inhibition of TNFα secretion: Bromodiphenhydramine HCl μM: 0/0.21/0.43/0.85/1.7/3.4/6.8/14/27
[1] = Homo sapiens, Bromodiphenhydramine HCl μM r5-r13: 0,0.21,0.43,0.85,1.7,3.4,6.8,14,27
[2] = Homo sapiens, Cyproheptadine HCl μM r5-r12: 0,0.24,0.48,0.96,1.9,3.9,7.7,15
[3] = Homo sapiens, Loratadine μM r5-r13: 0,0.2,0.41,0.82,1.6,3.3,6.5,13,26
[4] = Homo sapiens, Thiethylperazine Maleate μM r5-r13: 0,0.2,0.39,0.78,1.6,3.1,6.3,13,25

Method: Drugs were added to the indicated concentration. […] The plate was then washed again with 0.1% Tween 20/PBS. An HRP-luminescent substrate was added to each well, and the light intensity of each well was measured using a plate luminometer.

CC(C)C(=O)c1c(C(C)C)nn2ccccc12 [Ibudilast]
inhibition at 0.5 µM [1]: 19%
inhibition at 0.5 µM [2]: 20%
inhibition at 0.5 µM [3]: 21%
inhibition at 0.5 µM [4]: 23%
inhibition at 1 µM [1]: 24%
inhibition at 1 µM [2]: 23%
inhibition at 1 µM [3]: 32%
inhibition at 1 µM [4]: 27%
inhibition at 2 µM [1]: 36%
inhibition at 2 µM [2]: 32%
inhibition at 2 µM [3]: 35%
inhibition at 2 µM [4]: 38%
inhibition at 4 µM [1]: 43%
inhibition at 4 µM [2]: 36%
inhibition at 4 µM [3]: 39%
inhibition at 4 µM [4]: 42%
inhibition at 8 µM [1]: 41%
inhibition at 8 µM [2]: 41%
inhibition at 8 µM [3]: 43%
inhibition at 8 µM [4]: 48%

CC(CN1c2ccccc2Sc2ccccc21)N(C)C (centres unmarked) [Promethazine HCl, promethazine]
inhibition at 16 µM (Homo sapiens, read-out: percent inhibition (dose matrix), Table 99, Promethazine HCl 16 μM, Amoxapine 0-25 μM): 30.4%
inhibition at 31 µM (Homo sapiens, read-out: percent inhibition (dose matrix), Table 99, Promethazine HCl 31 μM, Amoxapine 0-25 μM): 80.5%
inhibition at 16 µM (Homo sapiens, read-out: percent inhibition (dose matrix), Table 100, Promethazine HCl 16 μM, Fluoxetine HCl 0-29 μM): 30.8%
inhibition at 31 µM (Homo sapiens, read-out: percent inhibition (dose matrix), Table 100, Promethazine HCl 31 μM, Fluoxetine HCl 0-29 μM): 69.5%
inhibition at 16 µM (Homo sapiens, read-out: percent inhibition (dose matrix), Table 101, Promethazine HCl 16 μM, NOrtriptyline HCl 0-33 μM per row (c1)): 31%
inhibition at 31 µM (Homo sapiens, read-out: percent inhibition (dose matrix), Table 101, Promethazine HCl 31 μM, NOrtriptyline HCl 0-33 μM per row (c1)): 69.4%
inhibition at 16 µM (Homo sapiens, read-out: percent inhibition (dose matrix), Table 102, Promethazine HCl 16 μM, Paroxetine HCl 0-27 μM per row (c1)): 36.7%
inhibition at 31 µM (Homo sapiens, read-out: percent inhibition (dose matrix), Table 102, Promethazine HCl 31 μM, Paroxetine HCl 0-27 μM per row (c1)): 78.8%
inhibition at 16 µM (Homo sapiens, read-out: percent inhibition (dose matrix), Table 105, Promethazine HCl 16 μM, Fluoxetine HCl 0-29 μM): 22%
inhibition at 31 µM (Homo sapiens, read-out: percent inhibition (dose matrix), Table 105, Promethazine HCl 31 μM, Fluoxetine HCl 0-29 μM): 62.3%
inhibition at 16 µM (Homo sapiens, read-out: percent inhibition of TNFα secretion, Promethazine HCl 16 μM, Amoxapine μM r5-r13: 0,0.2,0.4,0.8,1.6,3.2,6.4,13,25): 60.4%
inhibition at 16 µM (Homo sapiens, read-out: percent inhibition of TNFα secretion, Promethazine HCl 16 μM, Desipramine HCl: 0/0.25/0.5/1/2/4/8/16/32 μM): 42.8%
inhibition at 16 µM (Homo sapiens, read-out: percent inhibition of TNFα secretion, Promethazine HCl 16 μM, Fluoxetine HCl μM r5-r13: 0,0.23,0.45,0.9,1.8,3.6,7.2,14,29): 65.3%
inhibition at 16 µM (Homo sapiens, read-out: percent inhibition of TNFα secretion, Promethazine HCl 16 μM, Paroxetine HCl μM by row r5-r13: 0/0.21/0.42/0.83/1.7/3.3/6.7/13/27): 57.1%
inhibition at 16 µM (Homo sapiens, read-out: percent inhibition of TNFα secretion, Promethazine HCl 16 μM, Sertraline HCl by grid row r5-r13: 0/0.25/0.5/1/2/4/7.9/16/32 μM): 40%
inhibition at 31 µM (Homo sapiens, read-out: percent inhibition of TNFα secretion, Promethazine HCl 31 μM, Amoxapine μM r5-r13: 0,0.2,0.4,0.8,1.6,3.2,6.4,13,25): 85.4%
inhibition at 31 µM (Homo sapiens, read-out: percent inhibition of TNFα secretion, Promethazine HCl 31 μM, Desipramine HCl: 0/0.25/0.5/1/2/4/8/16/32 μM): 75.7%
inhibition at 31 µM (Homo sapiens, read-out: percent inhibition of TNFα secretion, Promethazine HCl 31 μM, Fluoxetine HCl μM r5-r13: 0,0.23,0.45,0.9,1.8,3.6,7.2,14,29): 87%
inhibition at 31 µM (Homo sapiens, read-out: percent inhibition of TNFα secretion, Promethazine HCl 31 μM, Paroxetine HCl μM by row r5-r13: 0/0.21/0.42/0.83/1.7/3.3/6.7/13/27): 84.2%
inhibition at 31 µM (Homo sapiens, read-out: percent inhibition of TNFα secretion, Promethazine HCl 31 μM, Sertraline HCl by grid row r5-r13: 0/0.25/0.5/1/2/4/7.9/16/32 μM): 72.1%
inhibition of TNFα secretion (prednisolone 1 μM, promethazine HCl r5-r13: 0,0.24,0.49,0.97,1.9,3.9,7.8,16,31 μM): 38

CN(C)CCOC(c1ccccc1)c1ccc(Br)cc1 (centres unmarked) [Bromodiphenhydramine HCl, bromodiphenhydramine]
inhibition at 14 µM (Homo sapiens, read-out: percent inhibition of TNFα secretion, Bromodiphenhydramine HCl 14 μM, Fluoxetine HCl μM: 0/0.23/0.45/0.9/1.8/3.6/7.2/14/29): 39%
inhibition at 27 µM (Homo sapiens, read-out: percent inhibition of TNFα secretion, Bromodiphenhydramine HCl 27 μM, Fluoxetine HCl μM: 0/0.23/0.45/0.9/1.8/3.6/7.2/14/29): 65.2%
percent inhibition of TNFα secretion (Nortryptyline HCl 0 μM (Bromodiphenhydramine HCl alone)): −15

CNCCC=C1c2ccccc2CCc2ccccc21.Cl [Nortryptyline HCl]
percent inhibition of TNFα secretion (Nortryptyline HCl 1 μM): 1.7
percent inhibition of TNFα secretion (Nortryptyline HCl 17 μM): 80
percent inhibition of TNFα secretion (Nortryptyline HCl 33 μM): 92
